Data: patent US12098145B2 (Libra Therapeutics, Inc., priority 2022, dated 2024)
Like-named read-outs stand apart in the source and are kept apart here.

Molecular target: T1, TRPML1 (Homo sapiens, UniProt Q9GZU1)
T1 construct: expressed in transfected cells; host or cells: HEK T-REx cells stably expressing GCaMP6f and TRPML1
Test: Cellular TRPML1 assay (FLIPR, GCaMP6f calcium read-out)
Format: cell-based
Experimental: Example A: Cellular TRPML1 Assay
The final clone for the TRPML1 assay is HEKT-REx/GCaMP6f/TRPML1. GCaMP6f is a genetically encoded calcium indicator that is stably expressed in this cell line and used as a fluorescent read-out.
Experiments were performed in 384 MTP format. Cells are seeded at 15000 cells/well in 20 μl/well of Optimem+0.5% FBS without selection antibiotics. Twenty-four hours later, cells are assayed for the response to various compounds using the Ca^2+ sensitive GCaMP6f protein stably expressed in the cells as readout.
The experiment was performed in a 384-well format according to the following procedures: • 24 h after seeding, the cells were pre-incubated at room temperature for about 10 min. • Started the experiment at the FLIPR^TETRA by injecting 10 μL/w of 3× concentrated test compounds and controls in Ca^2+ free Tyrode's buffer. Monitored the kinetic response over a period of 300 seconds. • Final DMSO concentration: 0.5%
Data from FLIPR^TETRA measurements were analyzed with the Genedata Screener© software.

[1] = HEKT-REx/GCaMP6f/TRPML1 cells, FLIPR TETRA, kinetic response over 300 seconds, read-out: TRPML1 FLIPR pEC50 (converted)

T1 sequence (Q9GZU1 whole entry): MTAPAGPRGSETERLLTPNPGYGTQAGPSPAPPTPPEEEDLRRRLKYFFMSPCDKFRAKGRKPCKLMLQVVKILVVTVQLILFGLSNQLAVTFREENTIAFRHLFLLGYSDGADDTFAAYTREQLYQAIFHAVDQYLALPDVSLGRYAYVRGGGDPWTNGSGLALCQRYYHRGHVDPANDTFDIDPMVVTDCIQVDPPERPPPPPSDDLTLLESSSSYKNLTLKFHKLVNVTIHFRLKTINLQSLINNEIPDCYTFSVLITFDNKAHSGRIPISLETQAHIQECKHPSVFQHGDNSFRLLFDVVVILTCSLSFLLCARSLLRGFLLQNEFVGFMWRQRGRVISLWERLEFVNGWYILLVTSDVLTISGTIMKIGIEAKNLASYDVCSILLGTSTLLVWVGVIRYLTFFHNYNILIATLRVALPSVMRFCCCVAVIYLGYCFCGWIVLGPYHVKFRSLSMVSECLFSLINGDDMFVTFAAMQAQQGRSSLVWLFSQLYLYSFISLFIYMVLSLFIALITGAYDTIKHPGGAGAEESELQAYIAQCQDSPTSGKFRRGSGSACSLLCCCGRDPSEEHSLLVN

SMILES	EC50 [nM]	EC50 [1] [nM]
O=C(Nc1cc(F)c(N2CC3CC(C3)C2)c(F)c1)c1nc(N2CCCC2)oc1CC(F)(F)F [Example 209, N-(4-(3-azabicyclo[3.1.1]heptan-3-yl)-3,5-difluorophenyl)-2-(pyrrolidin-1-yl)-5-(2,2,2-trifluoroethyl)oxazole-4-carboxamide]	10 to 1000	
O=C(Nc1ccc(O[C@@H]2COCC2(F)F)c(F)c1)c1nc(N2CCCC2)oc1CC(F)(F)F [Example 49, (R)—N-(4-((4,4-difluorotetrahydrofuran-3-yl)oxy)-3-fluorophenyl)-2-(pyrrolidin-1-yl)-5-(2,2,2-trifluoroethyl)oxazole-4-carboxamide]		1000 to 10000
CCC1(OC)CN(c2nc(C(=O)Nc3cc(F)c(O[C@@H]4C[C@@H]5C[C@@H]5C4)c(F)c3)c(CC(F)(F)F)o2)C1 [Example 167, N-(4-(cis-bicyclo[3.1.0]hexan-3-yloxy)-3,5-difluorophenyl)-2-(3-ethyl-3-methoxyazetidin-1-yl)-5-(2,2,2-trifluoroethyl)oxazole-4-carboxamide]		10 to 1000
O=C(Nc1ccc(OC2CCCC23CCC3)c(F)c1)c1nc(N2CCCC2)oc1CC(F)(F)F (stereo not drawn) [Example 67, N-(3-fluoro-4-{spiro[3.4]octan-5-yloxy}phenyl)-2-(pyrrolidin-1-yl)-5-(2,2,2-trifluoroethyl)oxazole-4-carboxamide]		1000 to 10000
CCC1(CC)CN(c2nc(C(=O)Nc3cnc(OC4CC5C[C@H]5C4)c(F)c3)c(CC(F)(F)F)o2)C1 (stereo partly drawn) [Example 191, N-(6-(cis-bicyclo[3.1.0]hexan-3-yloxy)-5-fluoropyridin-3-yl)-2-(3,3-diethylazetidin-1-yl)-5-(2,2,2-trifluoroethyl)oxazole-4-carboxamide]		1000 to 10000
CCC1(OC)CN(c2nc(C(=O)Nc3cc(C)c(N4C5CCCC4CC5)c(F)c3)c(CCF)o2)C1 [Example 291, N-(4-(8-azabicyclo[3.2.1]octan-8-yl)-3-fluoro-5-methylphenyl)-2-(3-ethyl-3-methoxyazetidin-1-yl)-5-(2-fluoroethyl)oxazole-4-carboxamide]	10 to 1000	
CC1CN(c2nc(C(=O)Nc3cc(F)c(OC4CC5C[C@H]5C4)c(F)c3)c(CC(F)(F)F)o2)CC(C)O1 (stereo partly drawn) [Example 176, N-(4-(cis-bicyclo[3.1.0]hexan-3-yloxy)-3,5-difluorophenyl)-2-(2,6-dimethylmorpholino)-5-(2,2,2-trifluoroethyl)oxazole-4-carboxamide]		10000 to 100000
O=C(Nc1ccc(O[C@@H]2CC3C[C@@H]3C2)c(F)c1)c1nc(N2CC3OCOC3C2)oc1CC(F)(F)F (stereo partly drawn) [Example 153, N-(4-(cis-bicyclo[3.1.0]hexan-3-yloxy)-3-fluorophenyl)-2-(tetrahydro-5H-[1,3]dioxolo[4,5-c]pyrrol-5-yl)-5-(2,2,2-trifluoroethyl)oxazole-4-carboxamide]		10 to 1000
Cc1oc(N2C[C@H]3CCO[C@H]3C2)nc1C(=O)Nc1ccc(N2CCCCC2)c(F)c1 [Example 123, N-(3-fluoro-4-(piperidin-1-yl)phenyl)-2-((3aR,6aR)-hexahydro-5H-furo[2,3-c]pyrrol-5-yl)-5-methyloxazole-4-carboxamide]		1000 to 10000
O=C(Nc1ccc(OCC2CCCC2(F)F)c(F)c1)c1nc(N2CCCC2)oc1CC(F)(F)F (stereo not drawn) [Example 53, N-{4-[(2,2-difluorocyclopentyl)methoxy]-3-fluorophenyl}-2-(pyrrolidin-1-yl)-5-(2,2,2-trifluoroethyl)oxazole-4-carboxamide]		1000 to 10000
Cc1oc(N2CCN(C3CC3)CC2)nc1C(=O)Nc1ccc(N2CCCCC2)c(F)c1 [Example 94, 2-(4-cyclopropylpiperazin-1-yl)-N-(3-fluoro-4-(piperidin-1-yl)phenyl)-5-methyloxazole-4-carboxamide]		10000 to 100000
O=C(Nc1ccc(N2CCCCC2)c(F)c1)c1nc(N2CCC3(CC2)CS(=O)(=O)C3)oc1CC(F)(F)F [Example 25, 2-(2,2-dioxo-2-thia-7-azaspiro[3.5]nonan-7-yl)-N-[3-fluoro-4-(piperidin-1-yl)phenyl]-5-(2,2,2-trifluoroethyl) oxazole-4-carboxamide]		10000 to 100000
CCc1oc(N2CC3CCOC3C2)nc1C(=O)Nc1cc(F)c(OC2CC3C[C@H]3C2)c(F)c1 (stereo partly drawn) [Example 233, N-(4-(cis-bicyclo[3.1.0]hexan-3-yloxy)-3,5-difluorophenyl)-5-ethyl-2-(hexahydro-5H-furo[2,3-c]pyrrol-5-yl)oxazole-4-carboxamide]		1000 to 10000
CCC1(CC)CN(c2nc(C(=O)Nc3cc(C)c(O[C@@H]4C[C@@H]5C[C@@H]5C4)c(F)c3)c(CN3CCCC3)o2)C1 [Example 298, N-(4-(cis-bicyclo[3.1.0]hexan-3-yloxy)-3-fluoro-5-methylphenyl)-2-(3,3-diethylazetidin-1-yl)-5-(pyrrolidin-1-ylmethyl)oxazole-4-carboxamide]		1000 to 10000
CCc1oc(N2CC(CC)(CO)C2)nc1C(=O)Nc1cc(F)c(O[C@@H]2C[C@@H]3C[C@@H]3C2)c(Cl)c1 [Example 220, N-(4-(cis-bicyclo[3.1.0]hexan-3-yloxy)-3-chloro-5-fluorophenyl)-5-ethyl-2-(3-ethyl-3-(hydroxymethyl)azetidin-1-yl)oxazole-4-carboxamide]		10 to 1000
O=C(Nc1cc(F)c(OC2CC3C[C@@H]3C2)c(F)c1)c1nc(N2CC3CC2C3)oc1CC(F)(F)F (stereo partly drawn) [Example 175, 2-(2-azabicyclo[2.1.1]hexan-2-yl)-N-(4-(cis-bicyclo[3.1.0]hexan-3-yloxy)-3,5-difluorophenyl)-5-(2,2,2-trifluoroethyl)oxazole-4-carboxamide]		10 to 1000
COC1(C)CN(c2nc(C(=O)Nc3cc(O)c(OC4CC5CC(C5)C4)c(F)c3)c(CC(F)(F)F)o2)C1 (stereo not drawn) [Example 265, N-(4-(bicyclo[3.1.1]heptan-3-yloxy)-3-fluoro-5-hydroxyphenyl)-2-(3-methoxy-3-methylazetidin-1-yl)-5-(2,2,2-trifluoroethyl)oxazole-4-carboxamide]		1000 to 10000
O=C(Nc1ccc(N2CCCCC2)c(F)c1)c1nc(N2CCC3(CC3)C2)oc1CC(F)(F)F [Example 27, 2-{5-azaspiro[2.4]heptan-5-yl}-N-[3-fluoro-4-(piperidin-1-yl)phenyl]-5-(2,2,2-trifluoroethyl)-1,3-oxazole-4-carboxamide]		1000 to 10000
CCC1(OC)CN(c2nc(C(=O)Nc3cc(F)c(N4CCC5CCCC54)c(F)c3)c(CC(F)(F)F)o2)C1 (stereo not drawn) [Example 205, N-(3,5-difluoro-4-(hexahydrocyclopenta[b]pyrrol-1(2H)-yl)phenyl)-2-(3-ethyl-3-methoxyazetidin-1-yl)-5-(2,2,2-trifluoroethyl)oxazole-4-carboxamide]		1000 to 10000
CCC1(OC)CN(c2nc(C(=O)Nc3cc(F)c(OC4CCCOC4)c(F)c3)c(CC(F)(F)F)o2)C1 (stereo not drawn) [Example 160, N-(3,5-difluoro-4-((tetrahydro-2H-pyran-3-yl)oxy)phenyl)-2-(3-ethyl-3-methoxyazetidin-1-yl)-5-(2,2,2-trifluoroethyl)oxazole-4-carboxamide]		10 to 1000
CCC1(CC)CN(c2nc(C(=O)Nc3cc(F)c(O[C@@H]4C[C@@H]5C[C@@H]5C4)c(F)c3)c(C)o2)C1 [Example 273, N-(4-(cis-bicyclo[3.1.0]hexan-3-yloxy)-3,5-difluorophenyl)-2-(3,3-diethylazetidin-1-yl)-5-methyloxazole-4-carboxamide]		10 to 1000
